Laboratory results as given in PubChem BioAssay (NCI).
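In this assay, cells in 96-well plates receive the compound at five concentrations for 48 hours. Endpoints are linearly interpolated between the surrounding concentrations. TGI: total growth inhibition.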

How the values were obtained:
Experiment in all cases: DTP human tumour cell line panel, 48 h
[1] = tested on: 786-0 renal
[2] = tested on: A498 renal
[3] = tested on: A549 NSCLC
[4] = tested on: ACHN renal
[5] = tested on: CAKI-1 renal
[6] = tested on: CCRF-CEM leukemia
[7] = tested on: COLO 205 colon
[8] = tested on: DLD-1 colon
[9] = tested on: DMS 114 small cell lung
[10] = tested on: DMS 273 small cell lung
[11] = tested on: EKVX NSCLC
[12] = tested on: HCC-2998 colon
[13] = tested on: HCT-116 colon
[14] = tested on: HCT-15 colon
[15] = tested on: HL-60(TB) leukemia
[16] = tested on: HOP-62 NSCLC
[17] = tested on: HOP-92 NSCLC
[18] = tested on: HT29 colon
[19] = tested on: IGROV1 ovarian
[20] = tested on: K-562 leukemia
[21] = tested on: KM12 colon
[22] = tested on: KM20L2 colon
[23] = tested on: LOX IMVI melanoma
[24] = tested on: LXFL 529 NSCLC
[25] = tested on: M14 melanoma
[26] = tested on: M19-MEL melanoma
[27] = tested on: MALME-3M melanoma
[28] = tested on: MOLT-4 leukemia
[29] = tested on: NCI-H226 lung
[30] = tested on: NCI-H23 lung
[31] = tested on: NCI-H460 lung
[32] = tested on: NCI-H522 lung
[33] = tested on: OVCAR-3 ovarian
[34] = tested on: OVCAR-4 ovarian
[35] = tested on: OVCAR-5 ovarian
[36] = tested on: OVCAR-8 ovarian
[37] = tested on: RPMI-8226 leukemia
[38] = tested on: RXF 393 renal
[39] = tested on: RXF-631 renal
[40] = tested on: SF-268 CNS
[41] = tested on: SF-295 CNS
[42] = tested on: SF-539 CNS
[43] = tested on: SK-MEL-2 melanoma
[44] = tested on: SK-MEL-28 melanoma
[45] = tested on: SK-MEL-5 melanoma
[46] = tested on: SK-OV-3 ovarian
[47] = tested on: SN12C renal
[48] = tested on: SNB-19 CNS
[49] = tested on: SNB-75 CNS
[50] = tested on: SNB-78 CNS
[51] = tested on: SW-620 colon
[52] = tested on: TK-10 renal
[53] = tested on: U251 CNS
[54] = tested on: UACC-257 melanoma
[55] = tested on: UACC-62 melanoma
[56] = tested on: UO-31 renal
[57] = tested on: XF 498 CNS
[58] = tested on: SR leukemia

Measured: TGI

CCc1c(C)[nH]c2c1/C(=N/N=C1\CCCc3[nH]c(C)c(CC)c31)CCC2
48.8 µM: [55]
75 µM: [2]
36.4 µM: [15]
78 µM: [51]
30.2 µM: [24]
41.6 µM: [7]
78.2 µM: [36]
62.7 µM: [30]
51.5 µM: [17]
31.9 µM: [54]
83.6 µM: [19]
52 µM: [34]
31.3 µM: [21]
35.4 µM: [53]
34.4 µM: [57]
76.4 µM: [6]
34.1 µM: [9]
81.5 µM: [42]
81.3 µM: [18]
35.9 µM: [44]
39.7 µM: [29] | [33]
50.5 µM: [13]
33.1 µM: [32]
50.1 µM: [49]
52.5 µM: [14]
61.9 µM: [40]
43.2 µM: [31]
70.5 µM: [38]
54.6 µM: [23]
33.9 µM: [37]
46.6 µM: [41]
27.6 µM: [45]
69.2 µM: [4]
39.4 µM: [28]
41.2 µM: [25]
78.4 µM: [46]
85.8 µM: [50]
48.3 µM: [26]
36.7 µM: [10]
39.5 µM: [56]
not listed: [58]
> 100 µM: all other assays above

CN(C)CCCCC1CCN(CC(=O)N2c3ccccc3NC(=O)c3ccccc32)CC1
72.9 µM: [25]
not listed: [4] | [14] | [19] | [22] | [23] | [31] | [35] | [38] | [53]
> 100 µM: all other assays above

O=S(=O)(c1ccccc1)C1CN2OC1(S(=O)(=O)c1ccccc1)CC21CCCCC1 (centres undefined)
not listed: [2] | [17] | [45] | [50]
> 100 µM: all other assays above

O=c1c(C(=Nc2ccccc2)c2ccccc2)c[nH]n1-c1ccccc1
72.8 µM: [38]
not listed: [13] | [16] | [17] | [26] | [29] | [33] | [58]
> 100 µM: all other assays above

CC1(C)C(=NN=C(N)N)C(C)(C)C1=NN=C(N)N
not listed: [2] | [6] | [11] | [16] | [43]
> 100 µM: all other assays above
